Columns and labels:
Assay in all cases: Test B pre-/postemergence plant response
Assay type in all cases: in vivo
Details in all cases: Postemergence
[1] = system: wheat (Triticum aestivum)
In short: (§1)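 Steps: sow seed in loam–sand soil and spray preemergence, or grow plants in peat-based medium to 1–4 leaves (2–18 cm) and spray postemergence; formulation is non-phytotoxic solvent plus surfactant; hold in greenhouse 13–15 days; score visually vs controls, 0 = no effect, 100 = complete control.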

[2] = system: blackgrass (Alopecurus myosuroides)
In short: as §1

[3] = system: woolly cupgrass (Eriochloa villosa)
In short: as §1

wild oat (Avena fatua) = system: wild oat (Avena fatua)
In short: as §1

kochia (Kochia scoparia) = system: kochia (Kochia scoparia)
In short: as §1

[4] = system: bermudagrass (Cynodon dactylon)
In short: as §1

[5] = system: Italian ryegrass (Lolium multiflorum)
In short: as §1

[6] = system: downy bromegrass (Bromus tectorum)
In short: as §1

[7] = system: Surinam grass (Brachiaria decumbens)
In short: as §1

[8] = system: large crabgrass (Digitaria sanguinalis)
In short: as §1

[9] = system: ragweed (common ragweed, Ambrosia elatior)
In short: as §1

[10] = system: morningglory (Ipomoea coccinea)
In short: as §1

[11] = 31 g ai/ha, 0 to 100 scale (0 no effect, 100 complete control)
[12] = 62 g ai/ha, scale 0 to 100 (0 no effect, 100 complete control)
[13] = 250 g ai/ha, scale 0 to 100 (0 no effect, 100 complete control), 13 to 15 days
[14] = 125 g ai/ha, scale 0 to 100 (0 no effect, 100 complete control)
[15] = 125 g ai/ha, scale 0 (no effect) to 100 (complete control), 13 to 15 days

COCCn1c(-c2cccc(F)c2)ncc(C(=O)C2=C(O)C3CCC(C3)C2=O)c1=O (stereo not drawn) [Compound 235]
45: Plant response rating, Wheat [1, 11] | Plant response rating, Blackgrass [2, 11]
100: Plant response rating, Cupgrass, Woolly [3, 12] | Plant response rating, Cupgrass, Woolly [3, 14] | Plant response rating, Cupgrass, Woolly [3, 13] | Plant response rating, Kochia (kochia (Kochia scoparia); [12]) | Plant response rating, Kochia (kochia (Kochia scoparia); [14]) | Plant response rating, Kochia (kochia (Kochia scoparia); [13]) | Plant response rating, Bermudagrass [4, 14] | Plant response rating, Bermudagrass [4, 13] | Plant response rating, Surinam Grass [7, 13] | Plant response rating, Crabgrass, Large [8, 13] | Plant response rating, Ragweed [9, 12] | Plant response rating, Ragweed [9, 13] | Plant response rating, Morningglory [10, 14] | Plant response rating, Morningglory [10, 13]
98: Plant response rating, Kochia (kochia (Kochia scoparia); [11]) | Plant response rating, Bermudagrass [4, 11] | Plant response rating, Bermudagrass [4, 12] | Plant response rating, Crabgrass, Large [8, 11] | Plant response rating, Crabgrass, Large [8, 12] | Plant response rating, Crabgrass, Large [8, 14] | Plant response rating, Ragweed [9, 11] | Plant response rating, Morningglory [10, 12]
50: Plant response rating, Oat, Wild (wild oat (Avena fatua); [12]) | Plant response rating, Bromegrass, Downy [6, 14]
10: Plant response rating, Bromegrass, Downy [6, 11]
60: Plant response rating, Blackgrass [2, 12] | Plant response rating, Ryegrass, Italian [5, 13]
90: Plant response rating, Surinam Grass [7, 12]
95: Plant response rating, Cupgrass, Woolly [3, 11] | Plant response rating, Oat, Wild (wild oat (Avena fatua); [13]) | Plant response rating, Morningglory [10, 11]
85: Plant response rating, Bromegrass, Downy [6, 13]
80: Plant response rating, Wheat [1, 12] | Plant response rating, Wheat [1, 13] | Plant response rating, Surinam Grass [7, 11]
70: Plant response rating, Blackgrass [2, 14]
35: Plant response rating, Oat, Wild (wild oat (Avena fatua); [11])
30: Plant response rating, Ryegrass, Italian [5, 11] | Plant response rating, Ryegrass, Italian [5, 12] | Plant response rating, Bromegrass, Downy [6, 12]

CCCCn1c(-c2cccc(F)c2)ncc(C(=O)C2=C(O)C3CCC(C3)C2=O)c1=O (stereo not drawn) [Compound 237]
90: Plant response rating, Oat, Wild (wild oat (Avena fatua); [13]) | Plant response rating, Bromegrass, Downy [6, 15]
30: Plant response rating, Bromegrass, Downy [6, 11]
65: Plant response rating, Kochia (kochia (Kochia scoparia); [11])
70: Plant response rating, Wheat [1, 12] | Plant response rating, Blackgrass [2, 12] | Plant response rating, Blackgrass [2, 15]
55: Plant response rating, Oat, Wild (wild oat (Avena fatua); [12])
85: Plant response rating, Wheat [1, 15] | Plant response rating, Wheat [1, 13] | Plant response rating, Surinam Grass [7, 11] | Plant response rating, Morningglory [10, 11]
50: Plant response rating, Wheat [1, 11] | Plant response rating, Blackgrass [2, 11] | Plant response rating, Ryegrass, Italian [5, 11] | Plant response rating, Ryegrass, Italian [5, 12]
45: Plant response rating, Bromegrass, Downy [6, 12]
95: Plant response rating, Bromegrass, Downy [6, 13] | Plant response rating, Crabgrass, Large [8, 11] | Plant response rating, Ragweed [9, 11] | Plant response rating, Morningglory [10, 12]
100: Plant response rating, Cupgrass, Woolly [3, 11] | Plant response rating, Cupgrass, Woolly [3, 12] | Plant response rating, Cupgrass, Woolly [3, 15] | Plant response rating, Cupgrass, Woolly [3, 13] | Plant response rating, Kochia (kochia (Kochia scoparia); [15]) | Plant response rating, Kochia (kochia (Kochia scoparia); [13]) | Plant response rating, Bermudagrass [4, 15] | Plant response rating, Bermudagrass [4, 13] | Plant response rating, Surinam Grass [7, 15] | Plant response rating, Surinam Grass [7, 13] | Plant response rating, Crabgrass, Large [8, 15] | Plant response rating, Crabgrass, Large [8, 13] | Plant response rating, Ragweed [9, 15] | Plant response rating, Ragweed [9, 13] | Plant response rating, Morningglory [10, 15] | Plant response rating, Morningglory [10, 13]
60: Plant response rating, Oat, Wild (wild oat (Avena fatua); [15]) | Plant response rating, Ryegrass, Italian [5, 15] | Plant response rating, Ryegrass, Italian [5, 13]
40: Plant response rating, Oat, Wild (wild oat (Avena fatua); [11])
98: Plant response rating, Bermudagrass [4, 11] | Plant response rating, Bermudagrass [4, 12] | Plant response rating, Surinam Grass [7, 12] | Plant response rating, Crabgrass, Large [8, 12] | Plant response rating, Ragweed [9, 12]
80: Plant response rating, Blackgrass [2, 13] | Plant response rating, Kochia (kochia (Kochia scoparia); [12])
